{"source": "patent US20220378706A1", "about": "“PHARMACEUTICAL COMPOSITION COMPRISING PDE9 INHIBITOR” (Eisai R&D Management Co., Ltd., priority 2017, published 2022)", "origin": "cited, not measured here", "system": "CSF cGMP", "conditions": "healthy subjects, 40 mg; cited from earlier work", "data": [{"smiles": "C[C@@H]1CN(Cc2ncccn2)C[C@H]1c1nc2c(cnn2C2CCOCC2)c(=O)[nH]1", "note": "[PF 04447943]", "values": [{"measurement": "CSF cGMP elevation", "result": "CSF cGMP elevation was demonstrated"}]}]}
